IC50 data for 22 compounds are collected here from ChEMBL document CHEMBL4229365, “Synthesis of novel ring-contracted artemisinin dimers with potent anticancer activities” (Eur J Med Chem, 2018).

For one assay, the system named is A549. Nature of the assay: Antiproliferative activity against human A549 cells after 72 hrs by CCK-8 assay. It counts as functional, cell-based. Particulars: A549, 72 h.
In the next assay the test system is A-375. The assay is described as follows: Antiproliferative activity against human A375 cells after 72 hrs by CCK-8 assay. In kind it is functional, cell-based. Particulars: A-375, 72 h. A general note: Tetrazolium dyes change colour on reduction, which living cells bring about.
A further assay deals with SH-SY5Y. Nature of the assay: Antiproliferative activity against human SH-SY5Y cells after 72 hrs by CCK-8 assay. It counts as functional, cell-based.
The subject of the next assay is PC-12. Nature of the assay: Antiproliferative activity against rat PC12 cells after 72 hrs by CCK-8 assay. It counts as functional, cell-based. The settings on record: PC-12, 72 h.
For a further assay, the system named is L02. Nature of the assay: Antiproliferative activity against human L02 cells after 72 hrs by CCK-8 assay. It counts as cell-based. Particulars: L02, 72 h.
The subject of the next assay is HCT-116. Nature of the assay: Antiproliferative activity against human HCT116 cells after 72 hrs by CCK-8 assay. It counts as functional, cell-based. Particulars: HCT-116, 72 h.

By IC50 is commonly meant the concentration that gives 50% inhibition.

With `COc1cccc2c1C(=O)c1c(O)c3c(c(O)c1C2=O)C[C@@](O)(C(=O)CO)C[C@@H]3O[C@H]1C[C@H](N)[C@H](O)[C@H](C)O1` [DOXORUBICIN], the IC50 was determined as 0.43 µM in the assay on A549; 0.37 µM with A-375; 0.35 µM in the assay on SH-SY5Y; 0.52 µM in the assay with PC-12; 0.85 µM in the assay on L02; 0.79 µM in the assay on HCT-116.
As to `C[C@@H]1CC[C@@H]2[C@]34OO[C@](C)(CC[C@@H]13)O[C@H]4O[C@]2(C)C(=O)OCC(C)(C)COC(=O)[C@@]1(C)O[C@@H]2O[C@@]3(C)CC[C@H]4[C@H](C)CC[C@@H]1[C@@]24OO3`, the IC50 with A549, in the assay on A-375, in the assay with SH-SY5Y, in the assay with PC-12 and with HCT-116 was greater than 50 µM each time.
Consider `C[C@@H]1CC[C@@H]2[C@]34OO[C@](C)(CC[C@@H]13)O[C@H]4O[C@]2(C)C(=O)OCCCCCCCCCCCCOC(=O)[C@@]1(C)O[C@@H]2O[C@@]3(C)CC[C@H]4[C@H](C)CC[C@@H]1[C@@]24OO3`, for which the IC50 in the assay on A549, with A-375, in the assay with SH-SY5Y, in the assay on PC-12 and in the assay with HCT-116 was greater than 50 µM in each case.
With `C[C@@H]1CC[C@@H]2[C@]34OO[C@](C)(CC[C@@H]13)O[C@H]4O[C@]2(C)C(=O)NCCCCCCCCNC(=O)[C@@]1(C)O[C@@H]2O[C@@]3(C)CC[C@H]4[C@H](C)CC[C@@H]1[C@@]24OO3`, the IC50 with A549 was 18.9 µM; in the assay on A-375 it was 19.4 µM; in the assay on SH-SY5Y, greater than 50 µM; with PC-12 it was 11.2 µM; with L02, greater than 50 µM; with HCT-116, greater than 50 µM.
For `C[C@@H]1CC[C@@H]2[C@]34OO[C@](C)(CC[C@@H]13)O[C@H]4O[C@]2(C)C(=O)OCCCCCCOC(=O)[C@@]1(C)O[C@@H]2O[C@@]3(C)CC[C@H]4[C@H](C)CC[C@@H]1[C@@]24OO3`, the IC50 is greater than 50 µM in the assay with A549; 22.6 µM with A-375; 15.3 µM in the assay on SH-SY5Y; 33.2 µM with PC-12; greater than 50 µM with L02; greater than 50 µM in the assay with HCT-116.
On to `C[C@@H]1CC[C@@H]2[C@]34OO[C@](C)(CC[C@@H]13)O[C@H]4O[C@]2(C)C(=O)Nc1ccc(NC(=O)[C@@]2(C)O[C@@H]3O[C@@]4(C)CC[C@H]5[C@H](C)CC[C@@H]2[C@@]35OO4)cc1`, for which the IC50 with A549, with A-375, with SH-SY5Y, in the assay on PC-12 and in the assay with HCT-116 was greater than 50 µM each time.
Take `C[C@@H]1CC[C@@H]2[C@]34OO[C@](C)(CC[C@@H]13)O[C@H]4O[C@]2(C)/C=C\COP(=O)(OC/C=C/[C@@]1(C)O[C@@H]2O[C@@]3(C)CC[C@H]4[C@H](C)CC[C@@H]1[C@@]24OO3)Oc1ccccc1`: the half-inhibitory concentration (IC50) in the assay with A549 is 10.7 µM; in the assay with A-375, 8.14 µM; in the assay on SH-SY5Y, 5.79 µM; in the assay with PC-12 it was 7.22 µM; in the assay with L02, 31.6 µM; with HCT-116, 9.1 µM.
As for `C[C@H]1[C@@H](O)O[C@@H]2O[C@@]3(C)CC[C@H]4[C@H](C)CC[C@@H]1[C@@]24OO3` [ARTENIMOL], the IC50 was 29.9 µM with A549; greater than 50 µM with A-375; greater than 50 µM with SH-SY5Y; greater than 50 µM with PC-12; greater than 50 µM with L02; 32.8 µM in the assay with HCT-116.
Turning to `C[C@@H]1CC[C@@H]2[C@]34OO[C@](C)(CC[C@@H]13)O[C@H]4O[C@]2(C)C(=O)OCCCCCCCOC(=O)[C@@]1(C)O[C@@H]2O[C@@]3(C)CC[C@H]4[C@H](C)CC[C@@H]1[C@@]24OO3`, the IC50 in the assay on A549 is 7.71 µM; in the assay on A-375, 7.86 µM; with SH-SY5Y it was 7.29 µM; in the assay on PC-12 it was 8.17 µM; in the assay on L02, 16.6 µM; in the assay on HCT-116, 11.6 µM.
For the compound `C[C@@H]1CC[C@@H]2[C@]34OO[C@](C)(CC[C@@H]13)O[C@H]4O[C@]2(C)C(=O)Nc1cccc(NC(=O)[C@@]2(C)O[C@@H]3O[C@@]4(C)CC[C@H]5[C@H](C)CC[C@@H]2[C@@]35OO4)c1`, the IC50 with A549, with A-375, with SH-SY5Y, in the assay with PC-12 and with HCT-116 was greater than 50 µM in each case.
On to `C[C@@H]1CC[C@@H]2[C@]34OO[C@](C)(CC[C@@H]13)O[C@H]4O[C@]2(C)C(=O)OCCCCCOC(=O)[C@@]1(C)O[C@@H]2O[C@@]3(C)CC[C@H]4[C@H](C)CC[C@@H]1[C@@]24OO3`, for which the IC50 is 12 µM in the assay on A549; greater than 50 µM with A-375; 9.26 µM in the assay on SH-SY5Y; greater than 50 µM in the assay with PC-12; greater than 50 µM with HCT-116.
Take `C[C@@H]1CC[C@@H]2[C@]34OO[C@](C)(CC[C@@H]13)O[C@H]4O[C@]2(C)C(=O)OCCCCOC(=O)[C@@]1(C)O[C@@H]2O[C@@]3(C)CC[C@H]4[C@H](C)CC[C@@H]1[C@@]24OO3`: the IC50 in the assay with A549 came to 6.56 µM; with A-375, 13.2 µM; in the assay with SH-SY5Y, 6.26 µM; in the assay with PC-12, 8.52 µM; in the assay on L02, 16.2 µM; with HCT-116, 7.65 µM.
`C[C@@H]1CC[C@@H]2[C@]34OO[C@](C)(CC[C@@H]13)O[C@H]4O[C@]2(C)C(=O)NCCCCCCNC(=O)[C@@]1(C)O[C@@H]2O[C@@]3(C)CC[C@H]4[C@H](C)CC[C@@H]1[C@@]24OO3`: the IC50 in the assay with A549 was greater than 50 µM; in the assay on A-375, 35.3 µM; in the assay with SH-SY5Y, greater than 50 µM; in the assay with PC-12, greater than 50 µM; in the assay with HCT-116, greater than 50 µM.
For the compound `C[C@@H]1CC[C@@H]2[C@]34OO[C@](C)(CC[C@@H]13)O[C@H]4O[C@]2(C)C(=O)OCCCCCCCCCCOC(=O)[C@@]1(C)O[C@@H]2O[C@@]3(C)CC[C@H]4[C@H](C)CC[C@@H]1[C@@]24OO3`, the IC50 is 29 µM in the assay on A549; 20.8 µM with A-375; greater than 50 µM in the assay on SH-SY5Y; greater than 50 µM in the assay on PC-12; greater than 50 µM with L02; greater than 50 µM in the assay with HCT-116.
For `C[C@@H]1CC[C@@H]2[C@]34OO[C@](C)(CC[C@@H]13)O[C@H]4O[C@]2(C)C(=O)Nc1ccccc1NC(=O)[C@@]1(C)O[C@@H]2O[C@@]3(C)CC[C@H]4[C@H](C)CC[C@@H]1[C@@]24OO3`, the IC50 in the assay with A549 is 31.6 µM; in the assay with A-375 it was 11.3 µM; in the assay on SH-SY5Y, 5.75 µM; with PC-12, 18.2 µM; in the assay with L02, greater than 50 µM; in the assay on HCT-116, 20 µM.
In the case of `CCOP(=O)(OC[C@@]1(C)O[C@@H]2O[C@@]3(C)CC[C@H]4[C@H](C)CC[C@@H]1[C@@]24OO3)OC[C@@]1(C)O[C@@H]2O[C@@]3(C)CC[C@H]4[C@H](C)CC[C@@H]1[C@@]24OO3`, the IC50 in the assay with A549 was 15.4 µM; in the assay with A-375 it was 9.62 µM; in the assay with PC-12, 5.46 µM; in the assay with L02, 33.9 µM; with HCT-116 it was 14.8 µM.
On to `CCOP(=O)(OC/C=C\[C@@]1(C)O[C@@H]2O[C@@]3(C)CC[C@H]4[C@H](C)CC[C@@H]1[C@@]24OO3)OC/C=C/[C@@]1(C)O[C@@H]2O[C@@]3(C)CC[C@H]4[C@H](C)CC[C@@H]1[C@@]24OO3`, for which the IC50 was 11.4 µM with A549; 12.4 µM in the assay with A-375; 6.38 µM with SH-SY5Y; 5.26 µM with PC-12; 18.7 µM in the assay on L02; 10.7 µM in the assay on HCT-116.
In the case of `C[C@@H]1CC[C@@H]2[C@]34OO[C@](C)(CC[C@@H]13)O[C@H]4O[C@]2(C)C(=O)NCCCCNC(=O)[C@@]1(C)O[C@@H]2O[C@@]3(C)CC[C@H]4[C@H](C)CC[C@@H]1[C@@]24OO3`, the IC50 is greater than 50 µM in the assay on A549; greater than 50 µM in the assay on A-375; greater than 50 µM with SH-SY5Y; 25.4 µM in the assay with PC-12; greater than 50 µM with HCT-116.
Consider `C[C@@H]1CC[C@@H]2[C@]34OO[C@](C)(CC[C@@H]13)O[C@H]4O[C@]2(C)C(=O)OCCOC(=O)[C@@]1(C)O[C@@H]2O[C@@]3(C)CC[C@H]4[C@H](C)CC[C@@H]1[C@@]24OO3`, for which the IC50 in the assay on A549, in the assay on A-375, in the assay with SH-SY5Y, in the assay on PC-12 and in the assay on HCT-116 was greater than 50 µM in each case.
Regarding `C[C@@H]1CC[C@@H]2[C@]34OO[C@](C)(CC[C@@H]13)O[C@H]4O[C@]2(C)C(=O)OCCCCCCCCCOC(=O)[C@@]1(C)O[C@@H]2O[C@@]3(C)CC[C@H]4[C@H](C)CC[C@@H]1[C@@]24OO3`, the IC50 in the assay with A549 worked out at 12.2 µM; with A-375, 8.13 µM; in the assay on SH-SY5Y, 5.12 µM; with PC-12, 4.46 µM; in the assay on L02, 33.7 µM; in the assay on HCT-116, 7.41 µM.
For the compound `C[C@@H]1CC[C@@H]2[C@]34OO[C@](C)(CC[C@@H]13)O[C@H]4O[C@]2(C)CO`, the half-maximal inhibitory concentration (IC50) in the assay with A549, with A-375, with SH-SY5Y, with PC-12, in the assay on L02 and with HCT-116 was greater than 50 µM in each case.
As for `C[C@@H]1CC[C@@H]2[C@]34OO[C@](C)(CC[C@@H]13)O[C@H]4O[C@]2(C)C(=O)OCc1ccccc1COC(=O)[C@@]1(C)O[C@@H]2O[C@@]3(C)CC[C@H]4[C@H](C)CC[C@@H]1[C@@]24OO3`, the IC50 in the assay on A549 is 21.7 µM; in the assay with A-375 it was greater than 50 µM; in the assay with SH-SY5Y, 47.5 µM; in the assay on PC-12, 8.73 µM; in the assay with L02, 5 µM; in the assay with HCT-116, 15.1 µM.
